Source: US20250339391A1, “METHODS FOR EFFECTIVE MANAGEMENT OF PAIN” (South Rampart Pharma, Inc., priority 2024, published 2025)
Where “and” joins values, the source holds several entries; their conditions need not be identical. Equal entries are not always repeated.

What was measured:
[1] = Phase 1 single ascending dose (SAD) and food effect pharmacokinetics; format: in vivo, human
Experimental: A two-part randomized, double-blind, placebo-controlled Phase 1 trial was conducted to assess the safety, tolerability, PK and PD of SRP-001 ascending doses (Quotient Sciences, Miami, FL USA). The study was conducted in accordance with the International Council for Harmonisation of Technical Requirements for Pharmaceuticals for Human Use (ICH), Guideline for GCP: Consolidated Guidance (E6), and applicable regulatory requirements(s) including clinical research guidelines established by the Basic Principles defined in the U.S. 21 CFR Parts 50, 56, and 312 and the principles enunciated in the Declaration of Helsinki (revised version Fortaleza 2013). The clinical protocol and informed consent form were reviewed and approved by an Institutional Review Board (IRB; Advarra IRB, 6100 Merriweather Drive, Suite 600, Columbia, MD 21044; Quotient Protocol No. SRP-101 and Quotient Sciences Study No. QSC205130; Quotient Sciences Miami, 3898 NW 7th Street, Miami, FL 33126.). The study comprises a SAD (Part 1) assessment that includes a food effect assessment that contributes data to inform a subsequent MAD (Part 2) dose-ranging study. Safety measurements were collected throughout the study for all subjects. Blood samples were collected to determine the PK parameters of SRP-001. ClinicalTrials.gov identifier: NCT05484414
Fasted and Fed Dosing: NHVs were dosed in the fasted state. The calorie/fat content of meals was not required to be controlled. Subjects were provided with a standardized menu. Subjects were provided with a light snack and then fasted from all food and drink (except water) for a minimum of 10 h on the day prior to dosing until approximately 4 h post-dose, at which time lunch was provided. An evening meal was provided at approximately 10 h post-dose/post-morning dose and an evening snack at approximately 14 h post-morning dose. Food effect was studied in the cohort receiving 900 mg SRP-001 in the fed state. A standard high-fat breakfast was given 30 min before dosing. On Day −1, these NHVs were provided with a light snack and fasted from all food and drink (except water) until the following morning, when they were provided with a standard high-fat breakfast. The breakfast had to be consumed over a maximum period of 25 min, with dosing occurring 30 min after the start of breakfast. Subjects were encouraged to eat their meal evenly over the 25 min period. It was acknowledged that some subjects took less time to eat, but dosing still occurred 30 min after the start of breakfast. Subjects had to consume at least 90% to be eligible for dosing. The start and stop time and percentage of the breakfast consumed were recorded in the source. Acceptable deviations for the pre-dose meal from the nominal time point were: 1) Pre-dose meal was provided within +5 min of the nominal time point, 2) Lunch was provided at approximately 4 h post-dose, 3) an evening meal at approximately 10 h post-dose, and 4) an evening snack at approximately 14 h post-dose. On subsequent days, meals were provided at appropriate times.
SRP-001 administration and PK/PD determination: Following a single administration of 300-2,000 mg SRP-001 oral suspension in the fasted state (and in cohort 4, 900 mg in the fed state), plasma concentrations of SRP-001 were observed from the first sampling timepoint of 1 h post-dose for all subjects.

[2] = Stability of API and oral nanosuspension; format: physicochemical
Experimental: The drug therapeutic candidate is manufactured in a two-step process (Latitude Pharmaceuticals, Inc., San Diego, CA USA). First, SRP-001 is jet milled. Second, the milled API is dispersed in a solution comprising 1% hydroxypropyl cellulose (1% HPC) and sterile water for injection and subjected to wet milling. The target particle size is approximately D90 0.15 μm. […] An oral nanoparticle suspension containing 100 mg/mL SRP-001 in aqueous 1% HPC preserved with 0.1% sodium benzoate was manufactured for use in nonclinical studies as Lot LPI2021028 and stored at 5° C.±3° C. […] The same formulation as above was manufactured under cGMP for use in clinical studies as Lot LPI2021031 and stored at 5° C.±3° C. […] This lot has been placed on stability at 5° C., 25° C./60% RH, and 40° C./75% RH. Finally, an appearance-matched placebo consisting of 2% microcrystalline cellulose in aqueous 1% HPC preserved with 0.1% sodium benzoate and 0.05% EDTA disodium dihydrate was manufactured under cGMP for use in clinical studies. The above oral suspensions were manufactured by Latitude Pharmaceuticals Inc. (San Diego, CA, USA).

CCN(CC)C(=O)c1ccccc1S(=O)(=O)NCC(=O)Nc1ccc(O)cc1 [SRP-001, N,N-diethyl-2-[[2-(4-hydroxyanilino)-2-oxo-ethyl]sulfamoyl]benzamide]
AUC(0-48), geometric mean ([1]; 300 mg fasted): 1630 ng·h/mL
AUC(0-inf), geometric mean ([1]; 300 mg fasted): 1630 ng·h/mL
T1/2, geometric mean ([1]; 300 mg fasted): 2.38 h
dose dependence of geometric mean Cmax and AUC(0-∞) ([1]; 300 mg to 2,000 mg): dose-proportional or super-proportional increase
AUC(0-24), geometric mean ([1]; 600 mg fasted): 5660 ng·h/mL
AUC(0-inf), geometric mean ([1]; 600 mg fasted): 5840 ng·h/mL
Cmax, geometric mean ([1]; 600 mg fasted): 1740 ng/mL
T1/2, geometric mean ([1]; 600 mg fasted): 5.0 h and 5.04 h
AUC(0-24), geometric mean ([1]; 900 mg fasted): 6870 ng·h/mL
AUC(0-inf), geometric mean ([1]; 900 mg fasted): 6970 ng·h/mL
Cmax, geometric mean ([1]; 900 mg fasted): 2700 ng/mL
T1/2, geometric mean ([1]; 900 mg fasted): 3.26 h
AUC(0-24), geometric mean ([1]; 900 mg fed): 6250 ng·h/mL
AUC(0-inf), geometric mean ([1]; 900 mg fed): 5910 ng·h/mL
Cmax, geometric mean ([1]; 900 mg fed): 1200 ng/mL
T1/2, geometric mean ([1]; 900 mg fed): 3.79 h
relative bioavailability based on geometric mean AUC(0-24) ([1]; 900 mg fed vs fasted): 99.2%
relative bioavailability based on geometric mean AUC(0-inf) ([1]; 900 mg fed vs fasted): 101%
relative bioavailability based on geometric mean AUC(0-last) ([1]; 900 mg fed vs fasted): 98.4%
relative bioavailability based on geometric mean Cmax ([1]; 900 mg fed vs fasted): 48.4%
AUC(0-24), geometric mean ([1]; 2000 mg fasted): 18900 ng·h/mL
AUC(0-inf), geometric mean ([1]; 2000 mg fasted): 19600 ng·h/mL
Cmax, geometric mean ([1]; 2000 mg fasted): 4590 ng/mL
T1/2, geometric mean ([1]; 2000 mg fasted): 5.96 h
geometric mean AUC(0-24) as share of the exposure limits defined in the protocol ([1]; 2000 mg fasted): 31%
geometric mean Cmax as share of the exposure limits defined in the protocol ([1]; 2000 mg fasted): 34%
increase of geometric mean AUC(0-24) ([1]; dose from 300 to 600 mg): 3.5 fold
increase of geometric mean Cmax ([1]; dose from 300 to 600 mg): 2.6 fold
increase of geometric mean AUC(0-24) ([1]; dose from 600 to 900 mg): 1.2 fold
increase of geometric mean Cmax ([1]; dose from 600 to 900 mg): 1.6 fold
increase of geometric mean AUC(0-24) ([1]; dose from 900 to 2000 mg): 2.8 fold
increase of geometric mean Cmax ([1]; dose from 900 to 2000 mg): 1.7 fold
API stable for ([2]; 25° C./60% RH): at least 9 months
API stable for ([2]; 40° C./75% RH): ≥ 6 months
